In brackets after ≈: the same amount, converted by molar mass.
Columns and labels:
Assay in all cases: MIC, dilution method on microplates (NCCLS M7-A2)
Assay type in all cases: cell-based
B. pumilus NCTC 8241 = conditions: Bacillus pumilus, NCTC8241
Procedure: (§1) Minimum inhibitory concentrations (MIC, mcg/ml) are determined by dilution method on microplates according to the recommendation of National Committee for Clinical Laboratory Standards (NCCLS, M7-A2). It is evident from Table 1 that standard strains and clinical isolates tested are susceptible to newly synthetised compounds. Thus they may be used for disinfection of rooms, chirurgical instruments and humans and as therapeutic agents in the treatment of infective diseases in animals, especially mammals and humans, caused by a broad spectrum of Gram-positive bacteria, mycoplasmas and generally patogenic microorganisms that are susceptible to the compounds of the formula (I). To this purpose the above compounds and pharmaceutically acceptable acid addition salts thereof may be administered orally in usual doses from 0.2 mg/kg body weight daily to about 250 mg/kg/day, most preferably from 5-50 mg/kg/day, or parenterally in the form of subcutaneous and intramuscular injections.

[1] = tested on: Staphylococcus epidermidis ATCC 12228; conditions: ATCC12228
Procedure: as §1

[2] = tested on: Pseudomonas aeruginosa NCTC 10490; conditions: NCTC10490
Procedure: as §1

[3] = tested on: Micrococcus flavus ATCC 10240; conditions: ATCC10240
Procedure: as §1

[4] = tested on: Bacillus subtilis NCTC 8236; conditions: NCTC8236
Procedure: as §1

[5] = tested on: Esherichia coli ATCC 10536
Procedure: as §1

[6] = tested on: Streptococcus faecalis ATCC 8043; conditions: Enterococcus faecalis, ATCC8043
Procedure: as §1

Salmonella Panama 6117 = conditions: Salmonella enterica, PANAMA6117
Procedure: as §1

[7] = tested on: Staphylococcus aureus ATCC 6538P; conditions: ATCC6538P
Procedure: as §1

B. cererus ATCC 11778 = tested on: B. cererus ATCC 11778
Procedure: as §1

[8] = tested on: BHS-B Streptococcus Agalactiae J-22
Procedure: as §1

[9] = tested on: BHS-A Streptococcus pyogenes J-21
Procedure: as §1

`CC[C@H]1OC(=O)[C@H](C)[C@@H](O[C@H]2C[C@@](C)(OC)[C@@H](O)[C@H](C)O2)[C@H](C)[C@@H](O[C@@H]2O[C@H](C)C[C@H](N(C)C)[C@H]2O)[C@](C)(O)C[C@@H](C)CN(C(=O)NC(C)C)[C@H](C)[C@@H](O)[C@]1(C)O` [Example 1, 9-deoxo-9a-N-(N'-isopropyl-carbamoyl)-9a-aza-9a-homoerythromycin A] gave an MIC (B. pumilus NCTC 8241) of 6.25 µg/mL (≈ 7.62 µM), an MIC [1] of 6.25 µg/mL (≈ 7.62 µM) and an MIC [2] of 25 µg/mL (≈ 30.5 µM). It also gave an MIC [3] of 3.12 µg/mL (≈ 3.8 µM), an MIC [4] of 1.56 µg/mL (≈ 1.9 µM) and an MIC [5] of 12.5 µg/mL (≈ 15.2 µM). It also gave an MIC [6] of 3.12 µg/mL (≈ 3.8 µM), an MIC (Salmonella Panama 6117) of 6.25 µg/mL (≈ 7.62 µM) and an MIC [7] of 1.56 µg/mL (≈ 1.9 µM). It also gave an MIC (B. cererus ATCC 11778) of 6.25 µg/mL (≈ 7.62 µM).
In the case of `CC[C@H]1OC(=O)[C@H](C)[C@@H](O[C@H]2C[C@@](C)(OC)[C@@H](O)[C@H](C)O2)[C@H](C)[C@@H](O[C@@H]2O[C@H](C)C[C@H](N(C)C)[C@H]2O)[C@](C)(O)C[C@@H](C)CN(C(=O)Nc2ccncc2)[C@H](C)[C@@H](O)[C@]1(C)O` [Example 4, 9-deoxo-9a-N-[N'-(4-pyridyl)-carbamoyl]-9a-aza-9a-homoerythromycin A], the MIC (B. pumilus NCTC 8241) is reported as 12.5 µg/mL (≈ 14.6 µM), the MIC [1] is reported as 25 µg/mL (≈ 29.2 µM) and the MIC [8] is reported as 12.5 µg/mL (≈ 14.6 µM). It also gave an MIC [2] of 50 µg/mL (≈ 58.5 µM), an MIC [3] of 12.5 µg/mL (≈ 14.6 µM) and an MIC [4] of 25 µg/mL (≈ 29.2 µM). It also gave an MIC [5] of 12.5 µg/mL (≈ 14.6 µM), an MIC [9] of 12.5 µg/mL (≈ 14.6 µM) and an MIC [6] of 6.25 µg/mL (≈ 7.31 µM). The MIC (Salmonella Panama 6117) was 25 µg/mL (≈ 29.2 µM), the MIC [7] was 12.5 µg/mL (≈ 14.6 µM) and the MIC (B. cererus ATCC 11778) was 12.5 µg/mL (≈ 14.6 µM).
In the case of `CC[C@H]1OC(=O)[C@H](C)[C@@H](O[C@H]2C[C@@](C)(OC)[C@@H](O)[C@H](C)O2)[C@H](C)[C@@H](O[C@@H]2O[C@H](C)C[C@H](N(C)C)[C@H]2O)[C@](C)(O)C[C@@H](C)CN(C(=O)Nc2ccccc2)[C@H](C)[C@@H](O)[C@]1(C)O` [Example 5, 9-deoxo-9a-N-(N'-phenyl-carbamoyl)-9a-aza-9a-homoerythromycin A], the MIC (B. pumilus NCTC 8241) is reported as 6.25 µg/mL (≈ 7.32 µM), the MIC [1] is reported as 3.12 µg/mL (≈ 3.65 µM) and the MIC [8] is reported as 1.56 µg/mL (≈ 1.83 µM). It also gave an MIC [2] of 50 µg/mL (≈ 58.5 µM), an MIC [3] of 6.25 µg/mL (≈ 7.32 µM) and an MIC [4] of 6.25 µg/mL (≈ 7.32 µM). It also gave an MIC [5] of 12.5 µg/mL (≈ 14.6 µM), an MIC [9] of 3.12 µg/mL (≈ 3.65 µM) and an MIC [6] of 3.12 µg/mL (≈ 3.65 µM). It also gave an MIC (Salmonella Panama 6117) of 25 µg/mL (≈ 29.3 µM), an MIC [7] of 6.25 µg/mL (≈ 7.32 µM) and an MIC (B. cererus ATCC 11778) of 12.5 µg/mL (≈ 14.6 µM).
In the case of `CC[C@H]1OC(=O)[C@H](C)[C@@H](O[C@H]2C[C@@](C)(OC)[C@@H](O)[C@H](C)O2)[C@H](C)[C@@H](O[C@@H]2O[C@H](C)C[C@H](N(C)C)[C@H]2O)[C@](C)(O)C[C@@H](C)CN(C(=O)NCc2ccccc2)[C@H](C)[C@@H](O)[C@]1(C)O` [Example 6, 9-deoxo-9a-N-(N'-benzyl-carbamoyl)-9a-aza-9a-homoerythromycin A], the MIC (B. pumilus NCTC 8241) is reported as 3.12 µg/mL (≈ 3.59 µM), the MIC [1] is reported as 6.25 µg/mL (≈ 7.2 µM) and the MIC [2] is reported as 50 µg/mL (≈ 57.6 µM). For the same molecule, the MIC [3] was 3.12 µg/mL (≈ 3.59 µM), the MIC [4] was 3.12 µg/mL (≈ 3.59 µM) and the MIC [5] was 25 µg/mL (≈ 28.8 µM). For the same molecule, the MIC [6] was 3.12 µg/mL (≈ 3.59 µM), the MIC (Salmonella Panama 6117) was greater than 100 µg/mL and the MIC [7] was 3.12 µg/mL (≈ 3.59 µM). For the same molecule, the MIC (B. cererus ATCC 11778) was 6.25 µg/mL (≈ 7.2 µM).
`CC[C@H]1OC(=O)[C@H](C)[C@@H](O[C@H]2C[C@@](C)(OC)[C@@H](O)[C@H](C)O2)[C@H](C)[C@@H](O[C@@H]2O[C@H](C)C[C@H](N(C)C)[C@H]2O)[C@](C)(O)C[C@@H](C)CN(C(=S)NCc2ccccc2)[C@H](C)[C@@H](O)[C@]1(C)O` [Example 7, 9-deoxo-9a-N-(N'-benzyl-thiocarbamoyl)-9a-aza-9a-homoerythromycin A] was tested, and the MIC (B. pumilus NCTC 8241) was 1.56 µg/mL (≈ 1.76 µM), the MIC [1] was 6.25 µg/mL (≈ 7.07 µM) and the MIC [2] was 50 µg/mL (≈ 56.5 µM). The MIC [3] was 1.56 µg/mL (≈ 1.76 µM), the MIC [4] was 1.56 µg/mL (≈ 1.76 µM) and the MIC [5] was 12.5 µg/mL (≈ 14.1 µM). For the same molecule, the MIC [6] was 1.56 µg/mL (≈ 1.76 µM), the MIC (Salmonella Panama 6117) was greater than 100 µg/mL and the MIC [7] was 3.12 µg/mL (≈ 3.53 µM). It also gave an MIC (B. cererus ATCC 11778) of 6.25 µg/mL (≈ 7.07 µM).
With `CC[C@H]1OC(=O)[C@H](C)[C@@H](O[C@H]2C[C@@](C)(OC)[C@@H](O)[C@H](C)O2)[C@H](C)[C@@H](O[C@@H]2O[C@H](C)C[C@H](N(C)C)[C@H]2O)[C@](C)(O)C[C@@H](C)CN[C@H](C)[C@@H](O)[C@]1(C)O` [Example 9a-NH, 9-deoxo-9a-aza-9a-homoerythromycin A] the MIC (B. pumilus NCTC 8241) was 12.5 µg/mL (≈ 17 µM), the MIC [1] was 3.12 µg/mL (≈ 4.25 µM) and the MIC [8] was 1.56 µg/mL (≈ 2.12 µM). The MIC [2] was 25 µg/mL (≈ 34 µM), the MIC [3] was 1.56 µg/mL (≈ 2.12 µM) and the MIC [4] was 12.5 µg/mL (≈ 17 µM). It also gave an MIC [5] of 3.12 µg/mL (≈ 4.25 µM), an MIC [9] of 3.12 µg/mL (≈ 4.25 µM) and an MIC [6] of 3.12 µg/mL (≈ 4.25 µM). The MIC (Salmonella Panama 6117) was 3.12 µg/mL (≈ 4.25 µM), the MIC [7] was 3.12 µg/mL (≈ 4.25 µM) and the MIC (B. cererus ATCC 11778) was 3.12 µg/mL (≈ 4.25 µM).
